Experimental data published in ChEMBL document CHEMBL5143608, “Peptide-based long-acting co-agonists of GLP-1 and cholecystokinin 1 receptors as novel anti-diabesity agents” (Eur J Med Chem, 2022).
pEC50: −log10 of the molar value. The source made the active and inactive calls. The rule behind the calls is not given here.

How the values were obtained:
[1] = Hepatotoxicity in db/db mouse assessed as aspartate aminotransferase level in plasma at 25 nmol/kg, sc administered every 2 days for 12 weeks; assay type: toxicity, organism-based; conditions: in vivo, 2016 h
[2] = Hepatotoxicity in db/db mouse assessed as alanine aminotransferase level in plasma at 100 nmol/kg, sc administered once daily for 7 days; assay type: toxicity, organism-based; conditions: in vivo, 168 h, time 7 day
Mus musculus [3] = test: Anti-diabesity activity against DIO C57BL/6 mouse assessed as increase in insulin sensitivity by measuring reduction in circulating insulin levels at 25 nmol/kg, sc administered every 2 days for 3 weeks by ELISA; assay type: functional, organism-based; conditions: time 21.0 day
[4] = AUC (0 to infinity) in Sprague-Dawley rat at 25 nmol/kg, sc by LC-MS/MS analysis; assay type: ADME, organism-based; parameters: time infinity, dose 25 nmol/kg, route sc; conditions: in vivo
Mus musculus [5] = test: Anti-diabesity activity against DIO C57BL/6 mouse assessed as reduction in fasted blood glucose level at 25 nmol/kg, sc administered every 2 days for 3 weeks; assay type: functional, organism-based; conditions: time 21.0 day
Mus musculus [6] = test: Anti-diabesity activity against db/db mouse assessed as reduction in HbA1c level at 25 nmol/kg, sc administered every 2 days for 6 weeks followed by saline treatment for 6 weeks and measured during second 6 weeks; assay type: functional, organism-based
[7] = Cmax in Sprague-Dawley rat at 25 nmol/kg, sc by LC-MS/MS analysis; assay type: ADME, organism-based; parameters: dose 25 nmol/kg, route sc; conditions: in vivo
Mus musculus [8] = test: Anti-diabesity activity against DIO C57BL/6 mouse assessed as improvement in glucose tolerance at 25 nmol/kg, sc administered every 2 days for 3 weeks by OGTT; assay type: functional, organism-based; conditions: time 21.0 day
Mus musculus [9] = test: Anti-diabesity activity against db/db mouse assessed as reduction in fasting blood glucose level at 25 nmol/kg, sc administered every 2 days for 6 weeks followed by saline treatment for 6 weeks and measured during second 6 weeks; assay type: functional, organism-based
[10] = Half life in Sprague-Dawley rat at 25 nmol/kg, iv by LC-MS/MS analysis; assay type: ADME, organism-based; conditions: in vivo
Mus musculus [11] = test: Anti-diabesity activity against db/db mouse assessed as improvement in glucose tolerance at 25 nmol/kg, sc administered every 2 days for 3 weeks by OGTT; assay type: functional, organism-based; conditions: time 21.0 day
[12] = Pancreatic insult activity in DIO C57BL/6 mouse assessed as increase in amylase level in plasma at 100 nmol/kg, sc administered once daily for 7 days; assay type: toxicity, organism-based; conditions: in vivo, 168 h, time 7 day
[13] = Renal toxicity in DIO C57BL/6 mouse assessed as blood urea nitrogen level at 100 nmol/kg, sc administered once daily for 7 days; assay type: organism-based; conditions: in vivo, 168 h, time 7 day
[14] = target: T1, CCK2R (gastrin/cholecystokinin type B receptor) (Homo sapiens, UniProt P32239); test: Agonist activity at human CCK2R expressed in HEK293 cells assessed as ERK1/2 phosphorylation incubated for 5 mins by AlphaScreen assay; assay type: functional, cell-based; conditions: human, HEK293 cells expressing human CCK2R
T1 sequence (P32239 whole entry): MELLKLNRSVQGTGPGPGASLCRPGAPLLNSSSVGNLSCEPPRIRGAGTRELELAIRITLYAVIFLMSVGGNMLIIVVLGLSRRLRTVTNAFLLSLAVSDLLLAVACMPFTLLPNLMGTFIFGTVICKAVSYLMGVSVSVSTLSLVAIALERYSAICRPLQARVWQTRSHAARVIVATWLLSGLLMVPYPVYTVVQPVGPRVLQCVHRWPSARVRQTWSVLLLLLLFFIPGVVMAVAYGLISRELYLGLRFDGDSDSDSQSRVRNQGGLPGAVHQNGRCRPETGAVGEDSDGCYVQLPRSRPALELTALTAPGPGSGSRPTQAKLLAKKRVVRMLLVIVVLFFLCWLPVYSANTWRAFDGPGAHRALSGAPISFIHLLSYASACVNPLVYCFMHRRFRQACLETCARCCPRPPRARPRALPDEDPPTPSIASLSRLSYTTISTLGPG

[15] = Hepatotoxicity in DIO C57BL/6 mouse assessed as alanine aminotransferase level in serum at 25 nmol/kg, sc administered every 2 days for 3 weeks; assay type: toxicity, organism-based; conditions: in vivo, 504 h, time 21 day
Rattus norvegicus = test: Anorectic activity in Sprague-Dawley rat assessed as reduction in food intake at 25 nmol/kg,ip measured after 24 hrs; assay type: functional
[16] = Toxicity in Sprague-Dawley rat assessed as induction of Pica behaviour by measuring kaolin intake at 25 nmol/kg, ip measured after 24 hrs; assay type: organism-based; conditions: in vivo
Mus musculus [17] = test: Anti-diabesity activity against db/db mouse assessed as increase in islet number at 25 nmol/kg, sc administered every 2 days for 3 weeks by H and E staining based analysis; assay type: functional, organism-based; conditions: time 21.0 day
Mus musculus [18] = test: Anti-diabesity activity in db/db mouse assessed as decrease in fasted blood glucose level at 100 nmol/kg, sc administered once daily for 7 days; assay type: functional, organism-based; conditions: time 7.0 day
Mus musculus [19] = test: Anti-diabesity activity against db/db mouse assessed as increase in insulin sensitivity by measuring reduction in plasma insulin level at 25 nmol/kg, sc administered every 2 days for 12 weeks by ELISA; assay type: functional, organism-based
[20] = target: T2, Cholecystokinin receptor type A (Homo sapiens, UniProt P32238); test: Agonist activity at human CCK1R expressed in HEK293 cells assessed as ERK1/2 phosphorylation incubated for 5 mins by AlphaScreen assay; assay type: functional, cell-based; conditions: hek293
T2 sequence (P32238 whole entry): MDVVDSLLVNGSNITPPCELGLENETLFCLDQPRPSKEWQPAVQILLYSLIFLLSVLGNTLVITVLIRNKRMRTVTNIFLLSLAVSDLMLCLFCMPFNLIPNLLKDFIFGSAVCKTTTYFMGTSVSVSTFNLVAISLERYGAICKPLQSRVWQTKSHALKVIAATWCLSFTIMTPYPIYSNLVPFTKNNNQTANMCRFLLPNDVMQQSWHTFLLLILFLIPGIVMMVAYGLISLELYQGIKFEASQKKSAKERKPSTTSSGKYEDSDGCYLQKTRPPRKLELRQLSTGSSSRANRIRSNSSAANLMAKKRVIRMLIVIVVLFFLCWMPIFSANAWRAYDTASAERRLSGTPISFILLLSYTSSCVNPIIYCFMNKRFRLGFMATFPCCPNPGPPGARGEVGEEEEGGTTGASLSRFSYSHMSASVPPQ

[21] = Hepatotoxicity in DIO C57BL/6 mouse assessed as alanine aminotransferase level in plasma at 100 nmol/kg, sc administered once daily for 7 days; assay type: toxicity, organism-based; conditions: in vivo, 168 h, time 7 day
Mus musculus [22] = test: Anti-diabesity activity against DIO C57BL/6 mouse assessed as reduction in cumulative food intake at 25 nmol/kg, sc administered every 2 days for 3 weeks; assay type: functional, organism-based; conditions: time 21.0 day
Mus musculus [23] = test: Anti-diabesity activity against db/db mouse assessed as reduction in fasting blood glucose level at 25 nmol/kg, sc administered every 2 days for 6 weeks followed by saline treatment for 6 weeks and measured during first 6 weeks; assay type: functional, organism-based
[24] = Pancreatic insult activity in DIO C57BL/6 mouse assessed as amylase level in serum at 25 nmol/kg, sc administered every 2 days for 3 weeks; assay type: toxicity, organism-based; conditions: in vivo, 504 h, time 21 day
[25] = Half life in Sprague-Dawley rat at 25 nmol/kg, sc by LC-MS/MS analysis; assay type: ADME, organism-based; conditions: in vivo
Mus musculus [26] = test: Anti-diabesity activity in db/db mouse assessed as decrease in cumulative food intake at 100 nmol/kg, sc administered once daily for 7 days; assay type: functional, organism-based; conditions: time 7.0 day
Mus musculus [27] = test: Anti-diabesity activity against db/db mouse assessed as reduction in cumulative food intake at 25 nmol/kg, sc administered every 2 days for 3 weeks; assay type: functional, organism-based; conditions: time 21.0 day

AUC(0-inf) [4] | Cmax [7] | half-life [10] | Structure (SMILES) | Activity [1] | Activity [2] | Activity (Mus musculus [3]) | Activity (Mus musculus [5]) | Activity (Mus musculus [6]) | Activity (Mus musculus [8]) | Activity (Mus musculus [9]) | Activity (Mus musculus [11]) | Activity [12] | Activity [13] | EC50 at 5 min [14] | Activity [15] | inhibition in vivo at 0.025 µmol/kg (Rattus norvegicus) | Activity [16] | Activity (Mus musculus [17]) | Activity (Mus musculus [18]) | Activity (Mus musculus [19]) | further results
5510 ng·h/mL | 341 ng/mL | 6.3 h | CCCC[C@H](NC(=O)[C@H](Cc1ccc(CS(=O)(=O)O)cc1)NC(=O)[C@H](CC(=O)O)NC(=O)COCCOCCNC(=O)COCCOCCNC(=O)[C@H](CCCNC(=N)N)NC(=O)CNC(=O)[C@H](CCCCN)NC(=O)[C@@H](NC(=O)[C@H](CC(C)C)NC(=O)[C@H](Cc1c[nH]c2ccccc12)NC(=O)[C@H](C)NC(=O)[C@@H](NC(=O)[C@H](Cc1ccccc1)NC(=O)[C@H](CCC(=O)O)NC(=O)[C@H](CCCCNC(=O)COCCOCCNC(=O)COCCOCCNC(=O)CC[C@H](NC(=O)CCCCCCCCCCCCCCCCC(=O)O)C(=O)O)NC(=O)[C@H](C)NC(=O)[C@H](C)NC(=O)[C@H](CCC(N)=O)NC(=O)CNC(=O)[C@H](CCC(=O)O)NC(=O)[C@H](CC(C)C)NC(=O)[C@H](Cc1ccc(O)cc1)NC(=O)[C@H](CO)NC(=O)[C@H](CO)NC(=O)[C@@H](NC(=O)[C@H](CC(=O)O)NC(=O)[C@H](CO)NC(=O)[C@@H](NC(=O)[C@H](Cc1ccccc1)NC(=O)[C@@H](NC(=O)CNC(=O)[C@H](CCC(=O)O)NC(=O)[C@H](C)NC(=O)[C@@H](N)Cc1cnc[nH]1)[C@@H](C)O)[C@@H](C)O)C(C)C)[C@@H](C)CC)C(C)C)C(=O)NCC(=O)N[C@@H](Cc1c[nH]c2ccccc12)C(=O)N[C@@H](CCCC)C(=O)N(C)[C@H](CC(=O)O)C(=O)N(C)[C@@H](Cc1ccccc1)C(N)=O | Non-Toxic | Non-Toxic | Active | Active | Active | Active | Active | Active | Non-Toxic | Non-Toxic | > 100 nM | Non-Toxic | 28% | Non-Toxic | Active | Active | Active | pEC50 [20]: 8.90; Activity [21]: Non-Toxic; Activity (Mus musculus [22]): Active; Activity (Mus musculus [23]): Active; Activity [24]: Non-Toxic; half-life [25]: 9.2 h; Activity (Mus musculus [26]): Active; Activity (Mus musculus [27]): Active
15200 ng·h/mL | 461 ng/mL | 9.1 h | CCCC[C@H](NC(=O)[C@H](Cc1ccc(CS(=O)(=O)O)cc1)NC(=O)[C@H](CC(=O)O)NC(=O)COCCOCCNC(=O)COCCOCCNC(=O)[C@H](CCCCN)NC(=O)CNC(=O)[C@H](CCCCN)NC(=O)[C@@H](NC(=O)[C@H](CC(C)C)NC(=O)[C@H](Cc1c[nH]c2ccccc12)NC(=O)[C@H](CCC(=O)O)NC(=O)[C@@H](NC(=O)[C@H](Cc1ccccc1)NC(=O)[C@H](CCC(=O)O)NC(=O)[C@H](CCCCNC(=O)COCCOCCNC(=O)COCCOCCNC(=O)CC[C@H](NC(=O)CCCCCCCCCCCCCCCCC(=O)O)C(=O)O)NC(=O)[C@H](C)NC(=O)[C@H](C)NC(=O)[C@H](CCC(=O)O)NC(=O)[C@H](CCC(=O)O)NC(=O)[C@H](CCC(=O)O)NC(=O)[C@H](CC(C)C)NC(=O)[C@@H](NC(=O)[C@H](CCC(=O)O)NC(=O)[C@@H](NC(=O)[C@@H](NC(=O)[C@H](CC(=O)O)NC(=O)[C@H](CC(N)=O)NC(=O)[C@@H](NC(=O)[C@H](Cc1ccc(O)cc1)NC(=O)[C@@H](NC(=O)CNC(=O)[C@H](CCC(=O)O)NC(=O)C(C)(C)NC(=O)[C@@H](N)Cc1cnc[nH]1)[C@@H](C)O)[C@@H](C)O)C(C)C)[C@@H](C)O)[C@@H](C)O)[C@@H](C)CC)[C@@H](C)CC)C(=O)NCC(=O)N[C@@H](Cc1c[nH]c2ccccc12)C(=O)N[C@@H](CCCC)C(=O)N(C)[C@H](CC(=O)O)C(=O)N(C)[C@@H](Cc1ccccc1)C(N)=O | Non-Toxic | Non-Toxic | Active | Active | Active | Active | Active | Active | Non-Toxic | Non-Toxic | > 100 nM | Non-Toxic | 33% | Non-Toxic | Active | Active | Active | pEC50 [20]: 9.08; Activity [21]: Non-Toxic; Activity (Mus musculus [22]): Active; Activity (Mus musculus [23]): Active; Activity [24]: Non-Toxic; half-life [25]: 16.8 h; Activity (Mus musculus [26]): Active; Activity (Mus musculus [27]): Active
